# Patent publication US20220387440A1, “FORMULATIONS FOR USE IN THE PREVENTION AND/OR TREATMENT OF PERIPHERAL NEUROPATHY AND ITS ASSOCIATED DISEASES” (priority 2019, published 2022)
# “And” between values parts separate entries of the source, which are not always exact repeats. Equal entries are not always repeated. Where two headings read alike, the source gives them in different places.
# What was measured:
# peripheral nerves = details: injected into the spinal cord compartment of cerebral spinal fluid; cited from earlier work
# [1] = test system: rat dorsal root ganglion neurons (DRG); experiment: WST-8 assay of viable cells, glucose toxicity; details: for Score of neuroprotection, WST8: glucose-treated DRGs
# Description: (§1) Primary cultures of dorsal rat ganglion neurons were prepared from the dorsal ganglions of neonatal Sprague-Dawley rats at day 8. […] Cells were maintained in neurobasal medium supplemented with B-27 component for 8 days at 37° C. in a humidified 5% CO2 atmosphere.
# 2. WST-8 assay: For detection of viable cells, 10 μl of CCK-8 reagent (WST-8) were added to each well and the plate was incubated at 37° C. After 1 hour, absorbance was measured at 450 nm using the Synergy II microplate reader.
# [2] = test system: rat dorsal root ganglion neurons (DRG); experiment: Cell number by hoechst 33342 nucleic acid stain (HCS), glucose toxicity; details: for Score of neuroprotection, HOECHST: glucose-treated DRGs
# Excerpt: This dye allows a sensitive cell number determination by fluorescence microscopy.
# eye = details: higher concentrations, accidental use instead of Trypan Blue during cataract surgery; cited from earlier work
# [3] = test system: rat dorsal root ganglion neurons (DRG); details: for Score of neuroprotection, Extremity count / Score of neuroprotection, Total length: glucose-treated DRGs
# Description: In vitro injury was induced in DRGs culture by glucose treatment (150 mM) for 48 hours. […] By using HCS technology, cell parameters associated with neurite outgrowth—an indication of pre-lethal cytotoxic effects—were measured at single cell level, which allows high-throughput screening.
# as §1
# Beta-Ill tubulin staining: Beta-Ill tubulin staining was determined by Immunohistochemistry (IHQ). Cells were washed with PBS (Sigma Aldrich # Cat.D8537) and fixed with methanol for 10 minutes. After the fixation step the samples were washed three times with PBS and permeabilized with PBS+0.3% triton for 10 minutes. The samples were then blocked with PBS+Bovine Serum Albumine (BSA) for 30 minutes and finally anti-beta tubulin Ill antibody (Abcam # Cat.ab7751) were added at 1/1000 in PBS+0.5% BSA for 60 minutes at room temperature. […] The samples were then washed three times and measured under automated fluorescent microscope. To investigate the role of neurite extension, two geometric patterns were mainly employed in this study: total neurite length (total length of the path from a neuron body), and number of extremities (number of terminating neurite segments per neuron).
# In order to acquire enough cells for the analysis, nine fields per well were imaged. The 20× objective was used to collect images for the distinct fluorescence channels. Dyes were excited and their fluorescence was monitored at the excitation and emission wavelengths with appropriate filter settings. In the setting up of the procedure, exposure times were adjusted in order to avoid overlapping emission between different probes. The collected images were analyzed using a module that allows the simultaneous quantification of subcellular structures, which are stained by different molecular probes to measure the fluorescence intensity associated with predefined nuclear and cytoplasmic compartments.
# glucose-treated DRGs = experiment: Degree of neuroprotection, sum of scores of all HCS parameters; details: for Total score of neuroprotection (sum of individual scores): glucose-treated DRGs; for Neuroprotection degree: prior to assault with 150 mM glucose
# Excerpt: For all the studied parameters, a variation of at least 20% in fluorescence intensity or in the corresponding morphological parameter in relation to untreated cultures was considered. […] From this calculation, a neuroprotective scale was established: high (>6), moderate (4-5), low (1-3), and no neuroprotection (0).
# In order to compare the degree of neuroprotection of the tested compound at different concentrations, different scores were created according to the level of the alteration (the group formation criterion is described in material and methods section) and then a value was assigned to each parameter. The sum of all the values for each parameter and concentration tested was calculated, and four distinct groups were created according to their level of neuroprotection.
# [4] = diluted with sodium chloride 0.9%; cited from earlier work
# [5] = MB 0.0005 uM (with glu 150 mM, 48 h)
# [6] = MB 0.0005 uM (with glu 150 mM, 48 h), listed as MB
# [7] = MB 0.005 uM (with glu 150 mM, 48 h)
# [8] = MB 0.005 uM (with glu 150 mM, 48 h), listed as MB
# [9] = MB 0.05 uM (with glu 150 mM, 48 h)
# [10] = MB 0.05 uM (with glu 150 mM, 48 h), listed as MB
# [11] = MB 0.5 uM (with glu 150 mM, 48 h)
# [12] = MB 0.5 uM (with glu 150 mM, 48 h), listed as MB
# [13] = MB 5 uM (with glu 150 mM, 48 h)
# [14] = MB 5 uM (with glu 150 mM, 48 h), listed as MB
# [15] = MB 50 uM (with glu 150 mM, 48 h)
# [16] = MB 50 uM (with glu 150 mM, 48 h), listed as MB
# [17] = Sprague-Dawley, rat, 48 h, 150 mM
structure (smiles),measurement,setting,value
"CN(C)c1ccc2nc3ccc(N(C)C)cc3[s+]c2c1 [methylene blue, 3,7-bis(dimethylamino) phenothiazin-5-ium chloride]",nerve toxicity after injection into cerebral spinal fluid,peripheral nerves,massive peripheral nerves damage and resultant total paraplegia
same,"Score of neuroprotection, WST8",[1]; 0.0005 μM,0 (no neuroprotection or variation lower than 20%)
same,"Score of neuroprotection, WST8",[1]; 0.005 μM,0 (no neuroprotection or variation lower than 20%)
same,"Score of neuroprotection, WST8",[1]; 0.05 μM,0 (no neuroprotection or variation lower than 20%)
same,"Score of neuroprotection, WST8",[1]; 0.5 μM,0 (no neuroprotection or variation lower than 20%)
same,"Score of neuroprotection, WST8",[1]; 5 μM,0 (no neuroprotection or variation lower than 20%)
same,viability (WST8) in addition to glucose,[1]; 50 μM with 150 mM glucose,decrease in viability
same,"Score of neuroprotection, WST8",[1]; 50 μM,−1 (variation 20-40%)
same,prevention of glucose induced viability decrease (WST8),[1]; 0.0005-50 μM with 150 mM glucose,could not prevent glucose induced viability decrease
same,"Score of neuroprotection, HOECHST",[2]; 0.0005 μM,3 (variation 60-100%)
same,"Score of neuroprotection, HOECHST",[2]; 0.005 μM,3 (variation 60-100%)
same,"Score of neuroprotection, HOECHST",[2]; 0.05 μM,3 (variation 60-100%)
same,"Score of neuroprotection, HOECHST",[2]; 0.5 μM,3 (variation 60-100%)
same,"Score of neuroprotection, HOECHST",[2]; 5 μM,1 (variation 20-40%)
same,"Score of neuroprotection, HOECHST",[2]; 50 μM,−1 (variation 20-40%)
same,"Cell viability by Hoechst, Mean % of control",[2]; [5],100.3 % of control
same,"Cell viability by Hoechst, mean",[2]; [5],221.7
same,Cell viability by Hoechst (single replicates),[2]; [6],187 and 236 and 242
same,"Cell viability by Hoechst, Mean % of control",[2]; [7],115.1 % of control
same,"Cell viability by Hoechst, mean",[2]; [7],254.3
same,Cell viability by Hoechst (single replicates),[2]; [8],255 and 290 and 218
same,"Cell viability by Hoechst, Mean % of control",[2]; [9],115.2 % of control
same,"Cell viability by Hoechst, mean",[2]; [9],254.7
same,Cell viability by Hoechst (single replicates),[2]; [10],270 and 253 and 241
same,"Cell viability by Hoechst, Mean % of control",[2]; [11],109.2 % of control
same,"Cell viability by Hoechst, mean",[2]; [11],241.3
same,Cell viability by Hoechst (single replicates),[2]; [12],234 and 217 and 273
same,"Cell viability by Hoechst, Mean % of control",[2]; [13],64.56 % of control
same,"Cell viability by Hoechst, mean",[2]; [13],142.7
same,Cell viability by Hoechst (single replicates),[2]; [14],168 and 103 and 157
same,"Cell viability by Hoechst, Mean % of control",[2]; [15],30.92 % of control
same,"Cell viability by Hoechst, mean",[2]; [15],68.33
same,Cell viability by Hoechst (single replicates),[2]; [16],74 and 69 and 62
same,prevention of glucose-induced mortality,"[2]; all concentrations (0.0005-5 μM), dose dependent, except 50 μM, co-incubation with 150 mM glucose",could prevent glucose-induced mortality
same,ocular toxicity,eye,"irreversible blindness, corneal edema"
same,"Score of neuroprotection, Extremity count",[3]; 0.0005 μM,0 (no neuroprotection or variation lower than 20%)
same,"Score of neuroprotection, Total length",[3]; 0.0005 μM,0 (no neuroprotection or variation lower than 20%)
same,"Score of neuroprotection, Extremity count",[3]; 0.005 μM,0 (no neuroprotection or variation lower than 20%)
same,"Score of neuroprotection, Total length",[3]; 0.005 μM,0 (no neuroprotection or variation lower than 20%)
same,re-establishment of neurite outgrowth affected by glucose,[3]; 0.05 μM with 150 mM glucose,could re-establish the affected neurite outgrowth
same,"Score of neuroprotection, Extremity count",[3]; 0.05 μM,1 (variation 20-40%)
same,"Score of neuroprotection, Total length",[3]; 0.05 μM,1 (variation 20-40%)
same,"Score of neuroprotection, Extremity count",[3]; 0.5 μM,0 (no neuroprotection or variation lower than 20%)
same,"Score of neuroprotection, Total length",[3]; 0.5 μM,0 (no neuroprotection or variation lower than 20%)
same,"Score of neuroprotection, Extremity count",[3]; 5 μM,−1 (variation 20-40%)
same,"Score of neuroprotection, Total length",[3]; 5 μM,0 (no neuroprotection or variation lower than 20%)
same,"Score of neuroprotection, Extremity count",[3]; 50 μM,−3 (variation 40-60%)
same,"Score of neuroprotection, Total length",[3]; 50 μM,−1 (variation 20-40%)
same,"Extremity count/neuron, Mean % of control",[3]; [5],77.9 % of control
same,"Extremity count/neuron, mean",[3]; [5],0.966
same,"Total length per neuron, Mean % of control",[3]; [5],70.88 % of control
same,"Total length per neuron, mean",[3]; [5],50.15
same,Extremity count/neuron (single replicates),[3]; [6],1.058 and 0.8613 and 0.9784
same,Total length per neuron (single replicates),[3]; [6],50.96 and 40.13 and 59.36
same,"Extremity count/neuron, Mean % of control",[3]; [7],82.24 % of control
same,"Extremity count/neuron, mean",[3]; [7],1.02
same,"Total length per neuron, Mean % of control",[3]; [7],74.22 % of control
same,"Total length per neuron, mean",[3]; [7],52.51
same,Extremity count/neuron (single replicates),[3]; [8],0.8645 and 1.19 and 1.005
same,Total length per neuron (single replicates),[3]; [8],45.83 and 61.19 and 50.5
same,"Extremity count/neuron, Mean % of control",[3]; [9],95.29 % of control
same,"Extremity count/neuron, mean",[3]; [9],1.182
same,"Total length per neuron, Mean % of control",[3]; [9],86.27 % of control
same,"Total length per neuron, mean",[3]; [9],61.03
same,Extremity count/neuron (single replicates),[3]; [10],1.345 and 1.059 and 1.141
same,Total length per neuron (single replicates),[3]; [10],62.91 and 50.39 and 69.8
same,"Extremity count/neuron, Mean % of control",[3]; [11],61.57 % of control
same,"Extremity count/neuron, mean",[3]; [11],0.7634
same,"Total length per neuron, Mean % of control",[3]; [11],56.15 % of control
same,"Total length per neuron, mean",[3]; [11],39.72
same,Extremity count/neuron (single replicates),[3]; [12],0.6567 and 0.8552 and 0.7784
same,Total length per neuron (single replicates),[3]; [12],37.34 and 47.77 and 34.07
same,"Extremity count/neuron, Mean % of control",[3]; [13],52.97 % of control
same,"Extremity count/neuron, mean",[3]; [13],0.6568
same,"Total length per neuron, Mean % of control",[3]; [13],60.36 % of control
same,"Total length per neuron, mean",[3]; [13],42.7
same,Extremity count/neuron (single replicates),[3]; [14],0.8559 and 0.5369 and 0.5777
same,Total length per neuron (single replicates),[3]; [14],53.61 and 42.2 and 32.3
same,"Extremity count/neuron, Mean % of control",[3]; [15],20.98 % of control
same,"Extremity count/neuron, mean",[3]; [15],0.2601
same,"Total length per neuron, Mean % of control",[3]; [15],22.74 % of control
same,"Total length per neuron, mean",[3]; [15],16.09
same,Extremity count/neuron (single replicates),[3]; [16],0.2833 and 0.2345 and 0.2625
same,Total length per neuron (single replicates),[3]; [16],18.18 and 12.64 and 17.45
same,Total score of neuroprotection (sum of individual scores),glucose-treated DRGs; 0.0005 μM,3
same,Neuroprotection degree,glucose-treated DRGs; 0.0005 μM,low (low (1-3))
same,Total score of neuroprotection (sum of individual scores),glucose-treated DRGs; 0.005 μM,3
same,Neuroprotection degree,glucose-treated DRGs; 0.005 μM,low (low (1-3))
same,Total score of neuroprotection (sum of individual scores),glucose-treated DRGs; 0.05 μM,5
same,Neuroprotection degree,glucose-treated DRGs; 0.05 μM,moderate (moderate (4-5))
same,Total score of neuroprotection (sum of individual scores),glucose-treated DRGs; 0.5 μM,3
same,Neuroprotection degree,glucose-treated DRGs; 0.5 μM,low (low (1-3))
same,Total score of neuroprotection (sum of individual scores),glucose-treated DRGs; 5 μM,0
same,Neuroprotection degree,glucose-treated DRGs; 5 μM,no (no neuroprotection (0))
same,Total score of neuroprotection (sum of individual scores),glucose-treated DRGs; 50 μM,−6
same,"neuroprotection against glucose-induced DRGs toxicity, all parameters",glucose-treated DRGs; concentrations from 0.0005 μM to 0.5 μM,some neuroprotection
same,compatibility with saline,[4],precipitation has been reported
"O=C[C@H](O)[C@@H](O)[C@H](O)[C@H](O)CO [Glucose, glucose]",viability reduction in DRGs measured by WST8,"[1]; glucose 150 mM, 48 h",22%
same,Cell viability by Hoechst (single replicates),"[2]; Glucose (Alone) 150 mM, 48 h",125 and 104 and 81
same,"Cell viability by Hoechst, Mean % of control","[2]; Glucose (Alone) 150 mM, 48 h",46.76 % of control
same,"Cell viability by Hoechst, mean","[2]; Glucose (Alone) 150 mM, 48 h",103.3
same,mortality in neurons,[2]; [17],54%
same,Extremity count/neuron (single replicates),"[3]; Glucose (Alone) 150 mM, 48 h",0.82 and 0.9862 and 0.7818
same,"Extremity count/neuron, Mean % of control","[3]; Glucose (Alone) 150 mM, 48 h",69.57 % of control
same,"Extremity count/neuron, mean","[3]; Glucose (Alone) 150 mM, 48 h",0.8627
same,Total length per neuron (single replicates),"[3]; Glucose (Alone) 150 mM, 48 h",42.95 and 52.97 and 37.56
same,"Total length per neuron, Mean % of control","[3]; Glucose (Alone) 150 mM, 48 h",62.89 % of control
same,"Total length per neuron, mean","[3]; Glucose (Alone) 150 mM, 48 h",44.49
same,decrease in neurite extremity count compared to untreated cells,[3]; [17],31%
same,decrease in neurite total length compared to untreated cells,[3]; [17],38%
